One may read the IC50 as the concentration needed to halve the response being measured.

For 23 compounds, IC50 results are on record in patent publication US20130252890A1, “6,7-DIHYDRO-5H-BENZO[7]ANNULENE DERIVATIVES, PROCESS FOR PREPARATION THEREOF, PHARMACEUTICAL PREPARATIONS COMPRISING THEM, AND THE USE THEREOF FOR PRODUCTION OF MEDICAMENTS” (BAYER INTELLECTUAL PROPERTY GMBH, priority 2010, published 2013).

For the assay, the target named is T1, oestrogen receptor (ER) (Homo sapiens, UniProt P03372).
T1 construct: These MVLN cells express, along with the functional oestrogen receptor (ER), a reporter construct; endogenous in cells; host or cells: MVLN cells (MCF7 derivative carrying a luciferase reporter construct)
T1 sequence (P03372 1-595): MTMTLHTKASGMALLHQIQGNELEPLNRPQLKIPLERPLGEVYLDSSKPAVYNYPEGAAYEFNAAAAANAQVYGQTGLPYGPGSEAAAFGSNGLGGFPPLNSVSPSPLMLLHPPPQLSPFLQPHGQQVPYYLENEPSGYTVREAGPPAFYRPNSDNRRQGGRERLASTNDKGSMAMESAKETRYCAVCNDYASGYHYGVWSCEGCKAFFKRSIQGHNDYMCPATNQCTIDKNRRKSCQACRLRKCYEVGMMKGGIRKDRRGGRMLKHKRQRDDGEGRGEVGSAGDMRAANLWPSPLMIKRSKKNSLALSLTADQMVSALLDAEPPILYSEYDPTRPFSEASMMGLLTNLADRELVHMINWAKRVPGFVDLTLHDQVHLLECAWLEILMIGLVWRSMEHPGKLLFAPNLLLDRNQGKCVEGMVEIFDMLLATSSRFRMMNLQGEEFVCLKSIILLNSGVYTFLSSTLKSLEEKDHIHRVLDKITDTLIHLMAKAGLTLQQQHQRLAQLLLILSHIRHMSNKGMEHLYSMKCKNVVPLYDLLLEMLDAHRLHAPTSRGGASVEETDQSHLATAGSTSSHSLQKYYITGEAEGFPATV
The assay can be described thus: Anti-oestrogenic action in MVLN cells (inhibition of estradiol-induced luciferase). It is filed as cell-based. To be noted: inhibition of estradiol-induced luciferase signal, value of Ex. 44 is a mean value, read-out: Antioestrogenic action in vitro: MVLN transactivation antagonism IC50. The source says: The anti-oestrogenic action of the claimed pharmacological compounds was investigated in so-called MVLN cells in vitro. MVLN cells are derivatives of the hormone-responsive MCF7 breast cancer cells known by a person skilled in the art. These MVLN cells express, along with the functional oestrogen receptor (ER), a reporter construct, which under ER-activation expresses luciferase. Determination of the activity of the induced luciferase permits a direct conclusion on the oestrogen properties of substances. To investigate the anti-oestrogenic properties of the pharmacological compounds, they were investigated in the presence of oestrogen for their potential for inhibiting the luciferase signal induced by estradiol. The claimed pharmacological test substances were investigated in MVLN cells for their anti-oestrogenic potential, as described (see Table 2).

Regarding `CN(CCCCCCC1=C(c2cc(F)cc(F)c2)CCCc2cc(O)ccc21)CCCS(=O)(=O)CCCC(F)(F)C(F)(F)F` [Example 1, 8-(3,5-Difluorophenyl)-9-[6-(methyl{3-[(4,4,5,5,5-pentafluoropentyl)sulphonyl]propyl}amino)hexyl]-6,7-dihydro-5H-benzo[7]annulen-3-ol], the IC50 came to 48 nM.

For `CN(CCCCCCC1=C(c2cc(F)cc(F)c2)CCCc2cc(O)ccc21)CCC[S+]([O-])CCC(F)(F)C(F)(F)F` (centres unmarked) [Example 2, 8-(3,5-Difluorophenyl)-9-[6-(methyl{3-[(3,3,4,4,4-pentafluorobutyl)sulphinyl]propyl}amino)hexyl]-6,7-dihydro-5H-benzo[7]annulen-3-ol], the IC50 was 8 nM.

Take `CN(CCCCCCC1=C(c2cc(F)cc(F)c2)CCCc2cc(O)ccc21)CCCS(=O)(=O)CCC(F)(F)C(F)(F)F` [Example 3, 8-(3,5-Difluorophenyl)-9-[6-(methyl{3-[(3,3,4,4,4-pentafluorobutyl)sulphonyl]propyl}amino)hexyl]-6,7-dihydro-5H-benzo[7]annulen-3-ol]: the IC50 came to 180 nM.

As for `CN(CCCCCCC1=C(c2cc(F)cc(F)c2)CCCc2cc(O)ccc21)CCCC[S+]([O-])CCCC(F)(F)C(F)(F)F` (centres unmarked) [Example 4, 8-(3,5-Difluorophenyl)-9-[6-(methyl{4-[(4,4,5,5,5-pentafluoropentyl)sulphinyl]butyl}amino)hexyl]-6,7-dihydro-5H-benzo[7]annulen-3-ol], the IC50 was 6 nM.

`CN(CCCCCCC1=C(c2cc(F)cc(F)c2)CCCc2cc(O)ccc21)CCC[S+]([O-])CCC(F)(F)F` (centres unmarked) [Example 5, 8-(3,5-Difluorophenyl)-9-[6-(methyl{3-[(3,3,3-trifluoropropyl)sulphinyl]propyl}amino)hexyl]-6,7-dihydro-5H-benzo[7]annulen-3-ol]: the IC50 came out at 46 nM.

As for `CN(CCCCCCC1=C(c2cc(F)cc(F)c2)CCCc2cc(O)ccc21)CCCS(=O)(=O)CCC(F)(F)F` [Example 6, 8-(3,5-Difluorophenyl)-9-[6-(methyl{3-[(3,3,3-trifluoropropyl)sulphonyl]propyl}amino)hexyl]-6,7-dihydro-5H-benzo[7]annulen-3-ol], the concentration for half-maximal inhibition (IC50) turned out to be 181 nM.

Take `CN(CCCCCCC1=C(c2cc(F)cc(F)c2)CCCc2cc(O)ccc21)CCC[S+]([O-])CCCC(F)(F)C(F)(F)F` (centres unmarked) [Example 8, 8-(3,5-Difluorophenyl)-9-[6-(methyl{3-[(4,4,5,5,5-pentafluoropentyl)sulphinyl]propyl}amino)hexyl]-6,7-dihydro-5H-benzo[7]annulen-3-ol]: the 50% inhibitory concentration (IC50) is 12 nM.

As for `CN(CCCCCCC1=C(c2cc(F)cc(F)c2)CCCc2cc(O)ccc21)CCCCS(=O)(=O)CCCC(F)(F)C(F)(F)F` [Example 9, 8-(3,5-Difluorophenyl)-9-[6-(methyl{4-[(4,4,5,5,5-pentafluoropentyl)sulphonyl]butyl}amino)hexyl]-6,7-dihydro-5H-benzo[7]annulen-3-ol], the 50% inhibitory concentration (IC50) was determined as 17 nM.

On to `CC(C)(O)CN(CCCCCCC1=C(c2cc(F)cc(F)c2)CCCc2cc(O)ccc21)CCC[S+]([O-])CCC(F)(F)F` (centres unmarked) [Example 10, 8-(3,5-Difluorophenyl)-9-{6-[(2-hydroxy-2-methylpropyl){3-[(3,3,3-trifluoropropyl)sulphinyl]propyl}amino]hexyl}-6,7-dihydro-5H-benzo[7]annulen-3-ol], for which the IC50 was 38 nM.

`CC(C)(O)CN(CCCCCCC1=C(c2cc(F)cc(F)c2)CCCc2cc(O)ccc21)CCCS(=O)(=O)CCC(F)(F)F` [Example 11, 8-(3,5-Difluorophenyl)-9-{6-[(2-hydroxy-2-methylpropyl){3-[(3,3,3-trifluoropropyl)sulphonyl]propyl}amino]hexyl}-6,7-dihydro-5H-benzo[7]annulen-3-ol]: the IC50 was determined as 84 nM.

Take `CC(C)(O)CN(CCCCCCC1=C(c2cc(F)cc(F)c2)CCCc2cc(O)ccc21)CCC[S+]([O-])CCCC(F)(F)C(F)(F)F` (centres unmarked) [Example 12, 8-(3,5-Difluorophenyl)-9-{6-[(2-hydroxy-2-methylpropyl){3-[(4,4,5,5,5-pentafluoropentyl)sulphinyl]propyl}amino]hexyl}-6,7-dihydro-5H-benzo[7]annulen-3-ol]: the IC50 is 15 nM.

Take `CC(C)(O)CN(CCCCCCC1=C(c2cc(F)cc(F)c2)CCCc2cc(O)ccc21)CCCS(=O)(=O)CCCC(F)(F)C(F)(F)F` [Example 13, 8-(3,5-Difluorophenyl)-9-{6-[(2-hydroxy-2-methylpropyl){3-[(4,4,5,5,5-pentafluoropentyl)sulphonyl]propyl}amino]hexyl}-6,7-dihydro-5H-benzo[7]annulen-3-ol]: the IC50 worked out at 20 nM.

On to `CCN(CCCCCCC1=C(c2cc(F)cc(F)c2)CCCc2cc(O)ccc21)CCCS(=O)(=O)CCC(F)(F)F` [Example 14, 8-(3,5-Difluorophenyl)-9-[6-(ethyl{3-[(3,3,3-trifluoropropyl)sulphonyl]propyl}amino)hexyl]-6,7-dihydro-5H-benzo[7]annulen-3-ol], for which the 50% inhibitory concentration (IC50) worked out at 168 nM.

As to `COCCN(CCCCCCC1=C(c2cc(F)cc(F)c2)CCCc2cc(O)ccc21)CCCS(=O)(=O)CCCC(F)(F)C(F)(F)F` [Example 15, 8-(3,5-Difluorophenyl)-9-{6-[(2-methoxyethyl){3-[(4,4,5,5,5-pentafluoropentyl)sulphonyl]propyl}amino]hexyl}-6,7-dihydro-5H-benzo[7]annulen-3-ol], the IC50 came to 26 nM.

For `COCCCN(CCCCCCC1=C(c2cc(F)cc(F)c2)CCCc2cc(O)ccc21)CCCS(=O)(=O)CCCC(F)(F)C(F)(F)F` [Example 16, 8-(3,5-Difluorophenyl)-9-{6-[(3-methoxypropyl){3-[(4,4,5,5,5-pentafluoropentyl)sulphonyl]propyl}amino]hexyl}-6,7-dihydro-5H-benzo[7]annulen-3-ol], the IC50 is 27 nM.

Take `CN(CCCCCCC1=C(c2ccc(F)c(F)c2)CCCc2cc(O)ccc21)CCCS(=O)(=O)CCCC(F)(F)C(F)(F)F` [Example 17, 8-(3,4-Difluorophenyl)-9-[6-(methyl{3-[(4,4,5,5,5-pentafluoropentyl)sulphonyl]propyl}amino)hexyl]-6,7-dihydro-5H-benzo[7]annulen-3-ol]: the IC50 worked out at 46 nM.

Consider `CN(CCCCCCC1=C(c2ccc(F)c(F)c2)CCCc2cc(O)ccc21)CCC[S+]([O-])CCC(F)(F)C(F)(F)F` (centres unmarked) [Example 18, 8-(3,4-Difluorophenyl)-9-[6-(methyl{3-[(3,3,4,4,4-pentafluorobutyl)sulphinyl]propyl}amino)hexyl]-6,7-dihydro-5H-benzo[7]annulen-3-ol], for which the IC50 turned out to be 34 nM.

In the case of `CN(CCCCCCC1=C(c2ccc(F)c(F)c2)CCCc2cc(O)ccc21)CCCS(=O)(=O)CCC(F)(F)C(F)(F)F` [Example 19, 8-(3,4-Difluorophenyl)-9-[6-(methyl{3-[(3,3,4,4,4-pentafluorobutyl)sulphonyl]propyl}amino)hexyl]-6,7-dihydro-5H-benzo[7]annulen-3-ol], the IC50 came to 62 nM.

On to `CN(CCCCCCC1=C(c2ccc(F)c(F)c2)CCCc2cc(O)ccc21)CCCC[S+]([O-])CCCC(F)(F)C(F)(F)F` (centres unmarked) [Example 20, 8-(3,4-Difluorophenyl)-9-[6-(methyl{4-[(4,4,5,5,5-pentafluoropentyl)sulphinyl]butyl}amino)hexyl]-6,7-dihydro-5H-benzo[7]annulen-3-ol], for which the IC50 was found to be 9 nM.

Consider `CN(CCCCCCC1=C(c2ccc(F)c(F)c2)CCCc2cc(O)ccc21)CCC[S+]([O-])CCC(F)(F)F` (centres unmarked) [Example 21, 8-(3,4-Difluorophenyl)-9-[6-(methyl{3-[(3,3,3-trifluoropropyl)sulphinyl]propyl}amino)hexyl]-6,7-dihydro-5H-benzo[7]annulen-3-ol], for which the IC50 came to 48 nM.

On to `CN(CCCCCCC1=C(c2ccc(F)c(F)c2)CCCc2cc(O)ccc21)CCCS(=O)(=O)CCC(F)(F)F` [Example 22, 8-(3,4-Difluorophenyl)-9-[6-(methyl{3-[(3,3,3-trifluoropropyl)sulphonyl]propyl}amino)hexyl]-6,7-dihydro-5H-benzo[7]annulen-3-ol], for which the IC50 was 222 nM.

With `CN(CCCCCCC1=C(c2ccc(F)c(F)c2)CCCc2cc(O)ccc21)CCC[S+]([O-])CCCC(F)(F)C(F)(F)F` (centres unmarked) [Example 24, 8-(3,4-Difluorophenyl)-9-[6-(methyl{3-[(4,4,5,5,5-pentafluoropentyl)sulphinyl]propyl}amino)hexyl]-6,7-dihydro-5H-benzo[7]annulen-3-ol], the 50% inhibitory concentration (IC50) was found to be 8 nM.

Turning to `CN(CCCCCCC1=C(c2ccc(F)c(F)c2)CCCc2cc(O)ccc21)CCCCS(=O)(=O)CCCC(F)(F)C(F)(F)F` [Example 25, 8-(3,4-Difluorophenyl)-9-[6-(methyl{4-[(4,4,5,5,5-pentafluoropentyl)sulphonyl]butyl}amino)hexyl]-6,7-dihydro-5H-benzo[7]annulen-3-ol], the IC50 came out at 28 nM.
